Reference: ChEMBL document CHEMBL3091365, “Optimization of O3-acyl kojic acid derivatives as potent and selective human neutrophil elastase inhibitors” (J Med Chem, 2013)

Experiments:
Kallikrein-1 = Kallikrein-1 (Homo sapiens, UniProt P06870); assay: Inhibition of human kallikrein using H-Pro-Phe-Arg-AMC acetate salt as substrate measured for 30 mins by spectrophotometry
Pancreatic elastase = Pancreatic elastase (Sus scrofa, UniProt P08419+P00772); assay: Inhibition of pig pancreatic elastase using MeO-Suc-Ala-Ala-Pro-Val-AMC as substrate incubated for 30 mins prior to substrate addition measured for 30 mins by fluorescence assay; assay type: protein assay
[1] = Stability of the compound in phosphate buffer at pH 7.4 at 100 uM by HPLC analysis; assay type: physicochemical; conditions: pH 7.4, 100 µM
[2] = Half life in Sprague-Dawley rat liver microsomes by HPLC analysis; assay type: ADME
Prothrombin = Prothrombin (Homo sapiens, UniProt P00734); assay: Inhibition of human thrombin using Z-Gly-Gly-Arg-AMC.HCl as substrate measured for 30 mins by spectrophotometry
Myeloblastin = biological target: T1, Myeloblastin (Homo sapiens, UniProt P24158); assay: Inhibition of human proteinase 3 using N-MeOSuc-Ala-Ala-Pro-Val-p-nitroanilide as substrate measured for 30 mins by spectrophotometry
T1 sequence (P24158 whole entry): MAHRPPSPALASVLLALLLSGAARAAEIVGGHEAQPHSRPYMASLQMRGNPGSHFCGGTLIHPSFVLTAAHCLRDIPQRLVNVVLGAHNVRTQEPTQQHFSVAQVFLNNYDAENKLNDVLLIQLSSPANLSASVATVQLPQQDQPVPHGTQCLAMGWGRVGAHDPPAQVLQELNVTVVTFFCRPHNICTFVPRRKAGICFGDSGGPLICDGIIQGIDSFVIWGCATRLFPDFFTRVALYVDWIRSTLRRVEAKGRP

HEK-293T = assay: Cytotoxicity against human HEK293T cells after 24 hrs by MTT assay; assay type: cell-based
Cathepsin G = biological target: T2, Cathepsin G (Homo sapiens, UniProt P08311); assay: Inhibition of human cathepsin G using Suc-Ala-Ala-Pro-Phe-p-nitroanilide as substrate incubated for 30 mins prior to substrate addition measured for 30 mins by spectrophotometry
T2 sequence (P08311 whole entry): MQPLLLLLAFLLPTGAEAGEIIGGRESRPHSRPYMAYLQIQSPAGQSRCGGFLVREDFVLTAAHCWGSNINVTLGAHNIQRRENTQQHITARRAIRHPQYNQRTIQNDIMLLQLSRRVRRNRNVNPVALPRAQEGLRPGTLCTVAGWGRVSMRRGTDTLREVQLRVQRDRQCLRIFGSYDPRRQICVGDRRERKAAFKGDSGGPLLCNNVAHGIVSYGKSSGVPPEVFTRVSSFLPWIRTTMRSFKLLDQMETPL

Trypsin = Trypsin (Homo sapiens, UniProt P07477+P07478+P35030); assay: Inhibition of human trypsin using Z-Gly-Gly-Arg-AMC.HCl as substrate measured for 30 mins by spectrophotometry; assay type: protein assay
[3] = Inhibition of human chymotrypsin using Suc-Ala-Ala-Pro-Phe-7-amino-4-methylcoumarin as substrate measured for 30 mins by spectrophotometry
[4] = biological target: Urokinase-type plasminogen activator (Homo sapiens, UniProt P00749); assay: Inhibition of human urokinase using Z-Gly-Gly-Arg-AMC.HCl as substrate measured for 30 mins by spectrophotometry
NIH3T3 = assay: cells; conditions: Mus musculus, NIH3T3, 24 h
Description: Cytotoxicity against mouse NIH/3T3 cells after 24 hrs by MTT assay

Neutrophil elastase = biological target: T3, Neutrophil elastase (Homo sapiens, UniProt P08246); assay: Inhibition of human neutrophil elastase using MeO-Suc-Ala-Ala-Pro-Val-AMC as substrate incubated for 30 mins prior to substrate addition measured for 30 mins by fluorescence assay
T3 sequence (P08246 whole entry): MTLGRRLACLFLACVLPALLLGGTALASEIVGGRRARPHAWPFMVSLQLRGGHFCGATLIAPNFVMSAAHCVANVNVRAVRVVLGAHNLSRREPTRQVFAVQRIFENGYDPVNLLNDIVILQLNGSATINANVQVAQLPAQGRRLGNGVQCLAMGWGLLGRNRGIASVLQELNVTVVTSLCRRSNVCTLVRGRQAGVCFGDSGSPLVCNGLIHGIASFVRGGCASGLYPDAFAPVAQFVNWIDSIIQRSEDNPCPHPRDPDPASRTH

[5] = Half life in human plasma by HPLC analysis; assay type: ADME, cell-free
Plasma = assay: Metabolic stability in human plasma by HPLC analysis; assay type: ADME, cell-free

Sequence of Kallikrein-1 (P06870 whole entry): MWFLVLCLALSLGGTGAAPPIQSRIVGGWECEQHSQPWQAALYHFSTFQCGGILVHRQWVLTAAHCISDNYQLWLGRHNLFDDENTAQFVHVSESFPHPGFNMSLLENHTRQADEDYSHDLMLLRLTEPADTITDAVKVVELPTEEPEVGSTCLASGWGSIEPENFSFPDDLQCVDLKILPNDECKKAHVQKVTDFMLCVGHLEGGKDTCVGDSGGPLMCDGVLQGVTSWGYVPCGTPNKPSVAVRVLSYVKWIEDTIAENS

SMILES	IC50 (Kallikrein-1)	IC50 (Pancreatic elastase)	Stability [1]	half-life [2]	IC50 (Prothrombin)	IC50 (Myeloblastin)	IC50 (Cathepsin G)	IC50 (Trypsin)	IC50 [3]	IC50 [4]	IC50 (Neutrophil elastase)	half-life [5]	Stability (Plasma)	IC50 (HEK-293T)	IC50 (NIH3T3)
CC(C)(C)C(=O)Oc1ccc(S(=O)(=O)Nc2ccccc2C(=O)NCC(=O)O)cc1	> 2 µM	> 50 µM	Stable	19.9 min	> 2 µM	> 100 µM	> 100 µM	> 2 µM	> 2 µM	> 2 µM	–	–	Stable	> 100 µM	> 100 µM
CC(C)(C)C(=O)Oc1cn(-c2ccccc2)c(CSc2nc3cc(C(=O)O)ccc3o2)cc1=O	> 50 µM	–	–	–	8.4 µM	–	19 µM	–	–	> 50 µM	–	–	–	–	–
O=C(Oc1cn(-c2ccccc2)c(CSc2nc3ccccc3s2)cc1=O)c1ccccc1	–	–	–	–	–	–	–	–	–	–	280 nM	–	–	–	–
O=C(Oc1coc(CSc2nnc(NC(=O)C3CC3)s2)cc1=O)c1cccc(F)c1	–	–	Stable	–	–	–	–	–	–	–	–	–	–	–	–

The next lines start with results.

IC50 (Kallikrein-1)	IC50 (Pancreatic elastase)	Stability [1]	half-life [2]	IC50 (Prothrombin)	IC50 (Myeloblastin)	IC50 (Cathepsin G)	IC50 (Trypsin)	IC50 [3]	IC50 [4]	IC50 (Neutrophil elastase)	half-life [5]	Stability (Plasma)	SMILES	IC50 (HEK-293T)	IC50 (NIH3T3)
> 50 µM	> 100 µM	Stable	< 1 min	> 50 µM	5.9 µM	> 100 µM	> 50 µM	> 50 µM	> 50 µM	110 nM	10.8 min	–	CC(C)(C)C(=O)Oc1coc(CSc2nc3ccccc3s2)cc1=O	> 100 µM	> 100 µM
–	–	–	–	–	–	–	–	–	–	960 nM	–	–	CC(C)(C)C(=O)Oc1cn(-c2ccccc2)c(CSc2nc3ccccc3s2)cc1=O	–	–
> 50 µM	–	Stable	–	> 50 µM	–	> 100 µM	–	–	> 50 µM	–	–	–	CC(C)(C)C(=O)Oc1coc(CSc2nc3cc(C(=O)O)ccc3o2)cc1=O	–	–
